Measurements as given in patent US7501529B2, “7-Ethynyl-2,4,9-trithiaadamantane and related methods” (The University of Akron, priority 2003, dated 2009).

What was measured:
[1] = comparison value, source not stated; cited from earlier work
[2] = 1H NMR titration, stability constant of the inclusion complex (Benesi-Hildebrand); format: physicochemical
Description: The equilibrium constant of the formation of the inclusion complex provides a relative measurement of the thermodynamic driving force for the guest and host binding. NMR Titration was performed by measuring chemical shift changes as a function of the relative concentrations of the host and guest. The changes of the chemical shifts were measured for the H-3 and H-5 peaks of the host and Ha and Hb of the guest in the following scheme, which represents the inclusion complex formation of 7-hydroxycarbonyl-2,4,9-trithiaadamantane with β-cyclodextrin:
The data in Table 1 were also used to calculate the stability constant of the 7-hydroxycarbonyl-2,4,9-trithiaadamantane/β-cyclodextrin inclusion complex by applying the Benesi-Hildebrand equation having the formula: 1/Δδi=(1/KΔδc)(1/Hi)+1/Δδc where the Δδi represents the observed chemical shift difference between the free guest and complexed guest, Hi represents the total host concentration, and Δδc represents the guest chemical shift difference between a completely complexed state and completely free state. In order to use Benesi-Hildebrand equation, the host molecule must be present in excess. The stability constant was determined from simultaneous fits of three chemical shift data sets. The stability constant of 7-hydroxycarbonyl-2,4,9-trithiaadamantane/β-cyclodextrin in water was thus measured to be 1550 M^−1 (logK=3.19). […]

[3] = Solubility in water / D2O, observed during 1H NMR experiments; format: physicochemical
Source text: The formation of inclusion complex between 7-hydroxycarbonyl-2,4,9-trithiaadamantane and β-cyclodextrin was evident in the 1H NMR experiments. […] Thus, a 1:1 mixture of 7-hydroxycarbonyl-2,4,9-trithiaadamantane and β-cyclodextrin (3.5×10^−3 M) formed a clear solution in D2O in an NMR sampling tube. At the low concentration limit, this change in the solubility of 7-hydroxycarbonyl-2,4,9-trithiaadamantane in water is attributed to the molecular interactions between water insoluble 7-hydroxycarbonyl-2,4,9-trithiaadamantane and water soluble β-cyclodextrin. […] Similar phenomena in cyclodextrin inclusion complexes have been observed previously. Without being bound by theory, these spectral changes were attributed at least in part to the dynamic exchanges between uncomplexed species and the intimately included 7-hydroxycarbonyl-2,4,9-trithiaadamantane in β-cyclodextrin in aqueous solutions. […] The simultaneous observation of changes in the chemical shift of the β-cyclodextrin at H-3 and H-5 also indicated the binding interaction was dominated by the inclusion of the 7-hydroxycarbonyl-2,4,9-trithiaadamantane guest inside the host β-cyclodextrin cavity.

Row | Compound | stability constant K of the β-cyclodextrin inclusion complex (comparison) [1] [M⁻¹] | association (stability) constant of the inclusion complex with β-cyclodextrin ([2]; 1:1 complex, in water (D2O), room temperature, 1H NMR titration) [M⁻¹] | logK of the stability constant of the β-cyclodextrin inclusion complex ([2]; in water) | solubility in water ([3]; water, without β-cyclodextrin) | change of solubility in water with β-cyclodextrin present ([3]; β-cyclodextrin present, 1:1 mixture (3.5×10^−3 M) formed a clear solution in D2O)
1 | O=C(O)C12CC3CC(CC(C3)C1)C2 [1-adamantane carboxylic acid] | 188 |  |  |  | 
2 | O=C(O)C12CC3SC(C1)SC(C2)S3 [7-hydroxycarbonyl-2,4,9-trithiaadamantane] |  | 1550 | 3.19 | dissolves only slightly | increased visibly
